Results taken from patent US12427209B2, “Dual mode 18F-labelled theranostic compounds and uses thereof” (Provincial Health Services Authority, priority 2018, dated 2025).

Tests used:
[1] = test system: B16-F10 tumor-bearing mice; type: in vivo, mice (male C57BL/6J); parameters: Reduction of accumulation in the spleen by co-injection of 1 / Reduction of accumulation in the intestines by co-injection of 1 / Reduction of accumulation in the lungs by co-injection of 1 / Reduction of accumulation in bone & marrow by co-injection of 1 / Reduction of accumulation in the tumor by co-injection of 1: concentration or dose not given beside the values
Procedure: All animal experiments were conducted according to the guidelines established by Canadian Council on Animal Care and approved by Animal Ethics Committee of the University of British Columbia. Mice were housed under pathogen-free conditions and kept on twelve-hour light and dark cycles in the Animal Resource Centre of BC Cancer Research Centre, Vancouver, Canada. PET imaging and biodistribution studies were performed using male C57BL/6J mice. For tumor implantation, mice were anesthetized by inhalation with 2% isoflurane in 2.0 L/min of oxygen, and 1×10^6 B16F10 cells were implanted subcutaneously on the right back at the level of the forelimbs. Mice were imaged or used in biodistribution studies once the tumor grew to reach 8-10 mm in diameter in 8-10 days. Mice for biodistribution study only were anesthetized by 2% isoflurane inhalation, and injected with 1-2 MBq of F-18 labeled […]3-DOTA. For blocking studies, 100 μg of non-radioactive […]3-DOTA was co-injected with the radioactive compound. After injection, the mice were allowed to recover and roam freely in their cages, and euthanized by CO2 inhalation 1 h later. Blood was promptly withdrawn, and the organs of interest were harvested, rinsed with 1×PBS (pH 7.4), and blotted dry. Each organ was weighed and the radioactivity of the collected tissue was measured using a WIZARD 2480 (PerkinElmer), normalized to the injected dose using a standard curve and expressed as the percentage of the injected dose per gram of tissue (% ID/g). Biodistribution of DOTA-[^18[…]]6) in B16-F10 tumor-bearing mice. Mice were anesthetized using 2% isoflurane and injected with 2-3 MBq of [^18F]6 via the tail vein. For competitive VLA-4 blocking studies, 200 μg of 1 was co-injected with 2-3 MBq of [^18F]6. At 1 h p.i., mice were euthanized by CO2 (g) inhalation, blood was collected, and the organs were excised. After rinsing and drying the samples, organs were weighed, their radioactivity was recorded using a Wallac WIZARD2 gamma counter (PerkinElmer), and values were expressed as % ID/g for each organ. Two-tailed ANOVA Sidak's multiple comparison tests (GraphPad PRISM) were used to evaluate statistical significance between the biodistribution of [^18F]6 alone compared with competitive blocking of VLA-4 by co-injections of 1.

[2] = test system: B16-F10 tumor-bearing mice; parameters: species or system mice (male C57BL/6J); conditions: mouse, in vivo
Procedure: PET/CT imaging studies were carried out on a microPET/CT scanner (Inveon, Siemens). Briefly, for static PET scans, each tumor bearing mouse was injected with 4-6 MBq of F-18 labeled […]3-DOTA via the caudal lateral tail vein under isoflurane sedation. For blocking study, mice were co-injected with 100 μg of non-radioactive […]3-DOTA. After injection, the mice were allowed to recover and roam freely in their cages. After 50 min, the mice were sedated again and positioned in the scanner. A baseline CT scan was obtained for localization and attenuation correction. This was followed by a 10 min static PET scan. The mice were kept warm by a heating pad during acquisition. The mice were euthanized using CO2 inhalation after static PET imaging followed by biodistribution. The PET images were reconstructed using the ordered subset expectation maximization and maximum a posteriori algorithm (OSEM3D/MAP), using 2 OSEM3D iterations followed by 18 MAP iterations, with a requested resolution of 1.5 mm. […] For static PET scans (recorded for 10 min), mice were first injected with 4-6 MBq of ([^18F]6) via the tail vein while anesthetized with 2% isoflurane and were subjected to baseline CT scans (recorded for 10 min) prior to PET imaging. […] Dynamic PET scans involved the described anesthesia, injection of 4-6 MBq of [^18F]6, baseline CT scans, and PET scans recorded from 5 sec. to 52.5 min p.i. […]

[3] = test system: mice bearing PSMA-expressing LNCaP prostate cancer xenografts; parameters: species or system mice (NODSCID 1L2RγKO male); conditions: mouse, in vivo
Procedure: Imaging and biodistribution experiments were performed using NODSCID 1L2RγKO male mice. The mice were maintained and the experiments were conducted in according to the guidelines established by Canadian Council on Animal Care and approved by Animal Ethics Committee of the University of British Columbia. Mice were anesthetized by inhalation with 2% isoflurane in oxygen, and implanted subcutaneously with 1×10^7 LNCaP cells behind left shoulder. Mice were imaged or used in biodistribution studies when the tumor grew up to reach 5-8 mm in diameter during 5-6 weeks. For biodistribution studies, the mice were injected with the radiotracer as described above. For blocking, the mice were co-injected with non-radioactive DCFPyL (0.5 mg). After 1 hour, the mice were anesthetized with 2% isoflurane inhalation, and euthanized by CO2 inhalation. Blood was withdrawn immediately from the heart, and the organs/tissues of interest were collected. The collected organs/tissues were weighed and counted using an automatic gamma counter. The uptake in each organ/tissue was normalized to the injected dose using a standard curve, and expressed as % ID/g.

[4] = highly dilute conditions (~5 mM), pH 7.5, in vitro (ref. 19); cited from earlier work
[5] = biological target: T1, VLA-4 expressing B16-F10 cells (Mus musculus, UniProt P09055+Q00651); assay: In vitro saturation binding assay on B16-F10 cells
T1 construct: endogenous in cells; host or cells: B16-F10 murine melanoma cells
Procedure: Saturation binding assay. In vitro binding saturation assays were performed on B16-F10 cells following published procedures (n=3).(28) Cells were grown to near-confluence on 24 well poly-D-lysine plates. Growth media was removed, and reaction media (RPMI, 1% BSA, 100 U/mL penicillin/streptomycin) was added and allowed to incubate for at least 1 h at 37° C. Increasing concentrations (5 pM to 20 nM) of [^18F]6 were added to the cells and incubated for 1 h at 25° C. with mild agitation. Non-specific binding was determined by repeating the described incubations with [^18F]6 while simultaneously adding 1 (10 μM). After incubation, cells were washed twice with ice-cold PBS, harvested following incubation with trypsin, and measured for radioactivity using a WIZARD 2480 gamma counter (PerkinElmer). Values from the non-specific binding assays were subtracted from the respective values of the specific binding assays. Dissociation constants (Kd'S) were determined using GraphPad PRISM 7 with a one-site specific binding model.

T1 sequence (Q00651 41-1039): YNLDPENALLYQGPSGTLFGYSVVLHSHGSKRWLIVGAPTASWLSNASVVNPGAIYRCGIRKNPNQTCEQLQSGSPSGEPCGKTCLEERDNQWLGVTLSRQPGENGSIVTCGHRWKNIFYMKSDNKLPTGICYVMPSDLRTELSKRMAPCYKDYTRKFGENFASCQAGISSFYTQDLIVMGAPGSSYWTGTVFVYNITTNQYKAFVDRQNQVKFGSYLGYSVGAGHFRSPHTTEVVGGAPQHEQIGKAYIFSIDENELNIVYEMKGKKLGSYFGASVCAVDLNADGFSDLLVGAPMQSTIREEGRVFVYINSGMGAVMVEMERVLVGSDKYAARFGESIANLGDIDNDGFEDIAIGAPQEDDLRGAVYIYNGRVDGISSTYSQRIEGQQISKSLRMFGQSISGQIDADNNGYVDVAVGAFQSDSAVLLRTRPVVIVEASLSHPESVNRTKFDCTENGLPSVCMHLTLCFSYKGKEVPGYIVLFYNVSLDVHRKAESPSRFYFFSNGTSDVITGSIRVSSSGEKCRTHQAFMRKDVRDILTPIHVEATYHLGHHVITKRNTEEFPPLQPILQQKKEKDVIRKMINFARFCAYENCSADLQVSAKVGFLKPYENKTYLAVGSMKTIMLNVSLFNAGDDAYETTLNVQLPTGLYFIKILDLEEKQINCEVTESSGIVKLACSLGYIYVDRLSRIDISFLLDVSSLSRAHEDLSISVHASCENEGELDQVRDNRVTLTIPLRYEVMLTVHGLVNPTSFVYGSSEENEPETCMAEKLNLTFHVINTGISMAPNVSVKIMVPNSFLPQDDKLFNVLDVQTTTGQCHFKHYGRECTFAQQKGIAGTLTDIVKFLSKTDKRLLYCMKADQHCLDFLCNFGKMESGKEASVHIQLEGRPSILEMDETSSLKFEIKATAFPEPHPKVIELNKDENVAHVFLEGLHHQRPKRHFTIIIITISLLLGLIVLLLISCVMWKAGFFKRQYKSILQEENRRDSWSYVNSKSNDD
T1 sequence (P09055 21-798): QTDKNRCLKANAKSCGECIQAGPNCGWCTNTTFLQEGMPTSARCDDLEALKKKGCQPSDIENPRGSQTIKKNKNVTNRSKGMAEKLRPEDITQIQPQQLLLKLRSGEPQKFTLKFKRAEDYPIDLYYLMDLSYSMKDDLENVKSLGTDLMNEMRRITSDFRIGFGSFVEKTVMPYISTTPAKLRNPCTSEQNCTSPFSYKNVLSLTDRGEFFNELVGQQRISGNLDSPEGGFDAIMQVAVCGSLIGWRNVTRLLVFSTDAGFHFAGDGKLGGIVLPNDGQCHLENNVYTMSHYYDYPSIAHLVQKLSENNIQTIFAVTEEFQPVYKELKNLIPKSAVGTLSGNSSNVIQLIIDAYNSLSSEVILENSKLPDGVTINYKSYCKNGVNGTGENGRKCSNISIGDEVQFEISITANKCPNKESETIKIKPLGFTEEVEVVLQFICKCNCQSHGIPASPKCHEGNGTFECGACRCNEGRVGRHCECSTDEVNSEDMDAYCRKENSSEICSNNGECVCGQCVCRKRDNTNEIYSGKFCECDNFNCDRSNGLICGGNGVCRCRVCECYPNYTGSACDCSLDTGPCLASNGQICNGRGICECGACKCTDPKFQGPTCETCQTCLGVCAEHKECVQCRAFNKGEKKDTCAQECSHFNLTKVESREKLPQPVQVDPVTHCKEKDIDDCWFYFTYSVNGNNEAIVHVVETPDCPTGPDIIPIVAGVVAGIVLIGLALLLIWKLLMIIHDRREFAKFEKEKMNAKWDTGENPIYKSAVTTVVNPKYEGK

DOTA-[^18F]AMBF3-PEG2-LLP2A [[^18F]6]
Lowering of tumor-to-blood contrast by VLA-4 blocking ([1]; 1 h p.i., p<0.0001): 85%
Lowering of tumor-to-muscle contrast by VLA-4 blocking ([1]; 1 h p.i., p<0.0001): 92%
Reduction of accumulation in bone & marrow by co-injection of 1 ([1]; 1 h p.i., p<0.0001): 78%
Reduction of accumulation in the lungs by co-injection of 1 ([1]; 1 h p.i., p<0.0001): 85%
Reduction of accumulation in the spleen by co-injection of 1 ([1]; 1 h p.i., p<0.0001): 88%
Reduction of accumulation in the tumor by co-injection of 1 ([1]; 1 h p.i., p<0.0001): 75%
Reduction of accumulation in the intestines by co-injection of 1 ([1]; 1 h p.i., p<0.05): 43%
Reduction of accumulation in the intestines compared to previously investigated [^18F]RBF3-PEG2-LLP2A's ([1]; mouse, in vivo): ~10 fold
Tumor-to-tissue ratio Tumor: Bone & Marrow ([1]; mouse, in vivo): 1.98 ± 0.78
Tumor-to-tissue ratio Tumor: Kidney ([1]; mouse, in vivo): 2.22 ± 0.60
Time of initial perfusion and first pass through the liver (dynamic PET) [2]: ≤ 4 min p.i.
Time to uptake in the tumor (dynamic PET) [2]: ≤ 1.9 min p.i.

^18F-PSMA-617-LysAMBF3-DOTA [F-18 labeled PSMA-617-Lys-AMBF3-DOTA]
Tumor/Blood baseline [3]: 14.19 ± 3.85
Tumor/Kidney baseline [3]: 0.09 ± 0.03
Tumor/Muscle baseline [3]: 41.55 ± 10.83

C#CC[N+](C)(C)C[B-](F)(F)F [compound 7, N-propargyl-N,N-dimethyl-ammoniomethyl-trifluoroborate]
Loss of free fluoride (hydrolytic stability) [4]: very slow, first order rate

DOTA-AMBF3-PEG2-LLP2A [compound 6]
Kd relative to Kd values of other [^18F]RBF3-PEG2-LLP2A conjugates (fold higher) ([5]; comparison with earlier conjugates): at least 5 fold
Kd ([5]; saturation binding of [^18F]6, B16-F10 cells, 1 h at 25° C., n=3): 6.9 ± 0.59 nM
